This passage reports Activity results from ChEMBL document CHEMBL2074284, “Transport of ochratoxin A by renal multispecific organic anion transporter 1” (J Pharmacol Exp Ther, 1999).

Data set [1] concerns the target T1, Solute carrier family 22 member 6 (Rattus norvegicus, UniProt O35956).
T1 sequence (O35956 whole entry): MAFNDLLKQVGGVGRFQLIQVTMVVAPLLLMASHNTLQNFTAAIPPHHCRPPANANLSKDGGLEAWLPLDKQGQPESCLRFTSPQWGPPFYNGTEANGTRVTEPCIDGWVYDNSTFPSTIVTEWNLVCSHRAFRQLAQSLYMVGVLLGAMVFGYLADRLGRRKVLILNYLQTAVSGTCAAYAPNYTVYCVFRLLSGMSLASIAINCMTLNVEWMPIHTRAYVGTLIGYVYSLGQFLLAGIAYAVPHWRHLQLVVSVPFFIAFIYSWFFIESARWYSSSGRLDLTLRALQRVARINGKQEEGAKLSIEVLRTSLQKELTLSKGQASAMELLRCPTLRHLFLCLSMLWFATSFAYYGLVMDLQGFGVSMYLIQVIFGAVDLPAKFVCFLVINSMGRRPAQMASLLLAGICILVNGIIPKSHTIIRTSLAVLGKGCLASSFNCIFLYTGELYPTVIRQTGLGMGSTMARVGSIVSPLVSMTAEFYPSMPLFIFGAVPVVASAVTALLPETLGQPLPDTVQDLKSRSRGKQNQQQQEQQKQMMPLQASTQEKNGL
The data set is described as follows: TP_TRANSPORTER: inhibition of Ochratoxin A uptake (OTA: 1 uM, Aspartame: 1000 uM) in Xenopus laevis oocytes. It is filed as functional, cell-based. Conditions: oocyte.

Data set [2] has as its target T1, Solute carrier family 22 member 6. The data set is described as follows: TP_TRANSPORTER: inhibition of Ochratoxin A uptake (OTA: 1 uM, Citrinin: 200 uM) in Xenopus laevis oocytes. It is filed as functional, cell-based. Conditions: oocyte.

As to `COC(=O)[C@H](Cc1ccccc1)NC(=O)[C@@H](N)CC(=O)O`, in data set [1], the Activity result was “is not an inhibitor [-]”.
Turning to `CC1=C2C(=CO[C@H](C)[C@H]2C)C(O)=C(C(=O)O)C1=O` [CITRININ], in data set [2], the Activity result is “inhibitor [(at a rough estimate) 20 % of control]”.
